What was measured:
Assay type in all cases: in vivo, Kunming mice
nNOS mRNA = experiment: RT-qPCR mRNA expression in small intestine: nNOS; conditions: 2^−ΔΔCt, actin reference, Bis group: bisacodyl 100 mg/kg per day
Protocol: (§1) After a week of adaptive culture, 40 mice are randomly divided into 5 groups, with 8 mice in each group, namely the group of normal control (NC), group of model (GM), BC69 low-dose group (BC-L), BC69 high-dose group (BC-H) and bisacodyl drug treatment group (Bis). […]
(§2) Messenger ribonucleic acid (mRNA) expressions of COX-2, c-kit, NFκB, iNOS, eNOS, nNOS and SCF are detected by RT-qPCR, and total RNA is extracted and complementary deoxyribonucleic acid (cDNA) reverse transcription is carried out according to the instructions of RNA extraction kit and cDNA reverse transcription kit; then a microspectrophotometer is used to identify the purity of the RNA at 260/280 nanometers (nm). Actin (actin) is used as a standardized internal reference for RT-qPCR analysis, and final RT-qPCR product expression is determined using the 2^−ΔΔCt method.

[1] = test system: vasoactive intestinal peptide (VIP); experiment: Serum gastrointestinal hormone ELISA: VIP; conditions: Bis group: bisacodyl 100 mg/kg per day
Protocol: (§3) After a week of adaptive culture, 40 mice are randomly divided into 5 groups, with 8 mice in each group, namely the group of normal control (NC), group of model (GM), BC69 low-dose group (BC-L), BC69 high-dose group (BC-H) and bisacodyl drug treatment group (Bis). During the experiment, saline gavage of 0.25 mL is administered daily to NC and GM mice; from day 1 to day 4, all mice except NC mice are additionally gavaged with loperamide hydrochloride suspension (1 mg/mL) 0.25 mL twice daily (at 9:00 a.m. and 2:00 p.m. respectively) to induce a functional constipation model of mice; after gavage on day 4, all mice are fasted from food but not water for 16 h; from day 5 to day 11, […] are gavaged with Bacillus coagulans BC suspension 0.25 mL every day, where the concentrations are 1.0×10^8 colony-forming units per milliliter (CFU/mL) and 4.0×10^9 CFU/mL respectively; mice of group Bis are gavaged with bisacodyl aqueous solution at 100 milligrams per kilogram (mg/kg) per day; after the completion of gavage on day 11, all groups of mice are fasted from food but not water for 16 h. […]
(§4) The contents of endothelin (ET), gastrin (Gas), motilin (MTL), substance P (SP), somatostatin (SS) and vasoactive intestinal peptide (VIP) in serum are determined according to the instructions of the enzyme-linked immuno sorbent assay (ELISA) kit.

substance P (SP) = experiment: Serum gastrointestinal hormone ELISA: SP; conditions: Bis group: bisacodyl 100 mg/kg per day
Protocol: as §3, §4

COX-2 mRNA = experiment: RT-qPCR mRNA expression in small intestine: COX-2; conditions: 2^−ΔΔCt, actin reference, Bis group: bisacodyl 100 mg/kg per day
Protocol: as §1, §2

eNOS mRNA = experiment: RT-qPCR mRNA expression in small intestine: eNOS; conditions: 2^−ΔΔCt, actin reference, Bis group: bisacodyl 100 mg/kg per day
Protocol: as §1, §2

iNOS mRNA = experiment: RT-qPCR mRNA expression in small intestine: iNOS; conditions: 2^−ΔΔCt, actin reference, Bis group: bisacodyl 100 mg/kg per day
Protocol: as §1, §2

motilin (MTL) = experiment: Serum gastrointestinal hormone ELISA: MTL; conditions: Bis group: bisacodyl 100 mg/kg per day
Protocol: as §3, §4

SCF mRNA = experiment: RT-qPCR mRNA expression in small intestine: SCF; conditions: 2^−ΔΔCt, actin reference, Bis group: bisacodyl 100 mg/kg per day
Protocol: as §1, §2

somatostatin (SS) = experiment: Serum gastrointestinal hormone ELISA: SS; conditions: Bis group: bisacodyl 100 mg/kg per day
Protocol: as §3, §4

endothelin-1 (ET-1) = experiment: Serum gastrointestinal hormone ELISA: ET-1; conditions: Bis group: bisacodyl 100 mg/kg per day
Protocol: as §3, §4

gastrin (Gas) = experiment: Serum gastrointestinal hormone ELISA: Gas; conditions: Bis group: bisacodyl 100 mg/kg per day
Protocol: as §3, §4

NFκB mRNA = experiment: RT-qPCR mRNA expression in small intestine: NFκB; conditions: 2^−ΔΔCt, actin reference, Bis group: bisacodyl 100 mg/kg per day
Protocol: as §1, §2

c-kit mRNA = experiment: RT-qPCR mRNA expression in small intestine: c-kit; conditions: 2^−ΔΔCt, actin reference, Bis group: bisacodyl 100 mg/kg per day
Protocol: as §1, §2

CC(=O)Oc1ccc(C(c2ccc(OC(C)=O)cc2)c2ccccn2)cc1 [Bis, bisacodyl]
mRNA expression levels nNos (nNOS mRNA): 0.04 ± 0.00 | VIP [1]: 36.13 ± 2.37 pg/mL | SP (substance P (SP)): 51.60 ± 3.48 pg/mL | mRNA expression levels COX-2 (COX-2 mRNA): 0.43 ± 0.05 | mRNA expression levels eNos (eNOS mRNA): 0.03 ± 0.00 | mRNA expression levels iNos (iNOS mRNA): 0.04 ± 0.00 | MTL (motilin (MTL)): 57.89 ± 2.65 pg/mL | mRNA expression levels SCF (SCF mRNA): 3.66 ± 0.62 | SS (somatostatin (SS)): 28.09 ± 1.89 pg/mL | ET-1 (endothelin-1 (ET-1)): 21.44 ± 1.28 pg/mL | Gas (gastrin (Gas)): 10.09 ± 0.69 pg/mL | mRNA expression levels NFκB (NFκB mRNA): 2.21 ± 0.84 | mRNA expression levels c-kit (c-kit mRNA): 0.08 ± 0.01

Source: patent US20240016860A1, “BACILLUS COAGULANS FOR IMPROVING CONSTIPATION AND APPLICATION THEREOF” (Thankcome Biological Science and Technology (Suzhou) Co., …, priority 2022, published 2024)
